In patent US20240398781A1, “SPIROCYCLIC CYCLIC MODULATORS OF CHOLESTEROL BIOSYNTHESIS AND THEIR USE FOR PROMOTING REMYELINATION” (GENENTECH, INC., priority 2021, published 2024):

Assays:
[1] = test system: EBP (zymostenol accumulation in EpiSC-derived OPCs); assay: GC/MS-based sterol profiling, zymostenol accumulation in OPCs; format: cell-based, mouse; conditions: Mus musculus, 24 h, EpiSC-derived OPCs, 24 hr treatment, 8 doses from 0.15 nM to 333 nM; read-out: Zymostenol GCMS EC50
Experimental: To assess effects of treatments on OPCs, all treatments were assayed in two or more independent platings of epiblast stem cell-derived OPCs ([…]-derived OPCs were obtained using in vitro differentiation protocols and culture conditions described previously (Najm et al, 2011, Nature Methods). OPCs were expanded and frozen down in aliquots. OPCs were thawed into growth conditions for at least one passage before use in further assays. Sterols were monitored using a modified Folch wash protocol (Hubler et al, 2018, Nature). EpiSC-derived OPCs were plated at 100,000 cells per well in PO- and laminin-coated 96-well plates in N2B27 media without growth factors. After 24 hours, cells were rinsed with saline and plates were frozen. Cholesterol-d7 standard was then added to each well before drying under nitrogen stream and derivatization with 55 μl of bis(trimethylsilyl) trifluoroacetamide. After derivatization, 2 μl were analyzed by gas chromatography/mass spectrometry using an Agilent 5973 Network Mass Selective Detector equipped with a 6890 gas chromatograph system and a HP-5MS capillary column (30 m×0.25 mm×0.25 mm). Samples were analyzed in full scan mode using electron impact ionization; ion fragment peaks were integrated to calculate sterol abundance, and quantitation was relative to cholesterol-d7. […] All standards were obtained from Avanti Polar Lipids unless otherwise indicated. Calibration curves were generated by injecting varying concentrations of sterol standards and maintaining a fixed amount of cholesterol-D7. For normalized zymostenol accumulation results, the total amount of zymostenol measured after drug treatment was divided by the total amount of zymostenol accumulated after 24 hr treatment with 100 nM positive control reference.

EpiSC-derived OPCs = assay: In vitro phenotypic screening of OPCs (MBP staining, high-content imaging); format: cell-based, mouse; conditions: Mus musculus, 72 h, percentage of MBP+ oligodendrocytes, 3 days, 0.5 nM to 1000 nM; read-out: OPC EC50
Experimental: To assess effects of treatments on OPCs, all treatments were assayed in two or more independent platings of epiblast stem cell-derived OPCs (EpiSC). EpiSC-derived OPCs were obtained using in vitro differentiation protocols and culture conditions described previously (Najm et al, 2011, Nature Methods). OPCs were expanded and frozen down in aliquots. OPCs were thawed into growth conditions for at least one passage before use in further assays.
EpiSC-derived OPCs were grown and expanded in poly-L-ornithine (PO) and laminin-coated flasks in N2B27 media (DMEM/F12 (Gibco), N2-MAX (R&D Systems), B-27 (ThermoFisher), and GlutaMax (Gibco)) supplemented with FGF2 ([…], R&D systems, 233-FB-025) and PDGF-AA ([…], R&D systems, 233-AA-050) before harvesting for experiments. The cells were seeded onto poly-L-ornithine or poly-D-lysine coated CellCarrier Ultra plates (PerkinElmer) coated with laminin (Sigma, L2020) at a density of 150,000/cm^2 in N2B27 media without growth factors. For dose-response testing, a 1000× compound stock in dimethyl sulphoxide (DMSO) was added to assay plates, resulting in 8-point dose curves with final concentrations between 1000 nM and 0.5 nM. Positive controls and DMSO vehicle controls were included in each assay plate. Cells were incubated under standard conditions (37° C., 5% CO2) for 3 days and fixed with 4% paraformaldehyde (PFA) in phosphate buffered saline (PBS) for 20 min. Fixed plates were washed with PBS, permeabilized with 0.1% Triton X-100, and blocked with 10% donkey serum (v/v) in PBS for 40 min. Then, cells were labelled with MBP antibodies (Abcam, ab7349; 1:200) for 2 h at room temperature, washed with PBS, and stained with Alexa Fluor conjugated secondary antibodies (1:500) for 45 min. Nuclei were visualized by DAPI staining (Sigma; 1 μg/ml), followed by further PBS washes.
Cells and cell culture plates were imaged on the Operetta High Content Imaging and Analysis system (PerkinElmer). Analysis (PerkinElmer Harmony and Columbus software) began by identifying intact nuclei stained by DAPI. The peri-nuclear region of each cell was then cross-referenced with the mature myelin protein (MBP) stain to identify oligodendrocyte nuclei, and from this the percentage of oligodendrocytes was calculated. EC50 values were calculated using The Levenberg-Marquardt algorithm to fit a Hill equation to dose-response data (0.5 nM to 1000 nM).

[2] = molecular target: human emopamil binding protein and human 7-dehydrocholesterol reductase co-expressing cells (hEBP-DHCR7 membrane) (Homo sapiens (Human), UniProt Q15125); assay: Radioligand filter binding assay on hEBP-DHCR7 membrane; conditions: [3H]-(S)-6-(2-Methyl-3-(6-(trifluoromethyl)pyridin-3-yl)propyl)-2-thia-6-azaspiro[3.4]octane 2,2-dioxide radioligand, HEK293 membrane co-expressing hEBP and hDHCR7
Experimental: Membrane Preparation: human emopamil binding protein and human 7-dehydrocholesterol reductase co-expressing cells were generated by transient transfecting host human embryonic kidney (HEK) 293 cells with 2 DNA constructs containing each protein's coding sequence. Cells were suspension cultured at 37° C. with 5% CO2 in […] 293 Expression Medium (Thermofisher). Whole cell membrane was prepared by harvesting the cell pellet, adding cold membrane buffer (50 mM Tris, pH7.5, lx Roche COMPLETE EDTA-free protease inhibitor cocktail) 10 times volume of the cell pellets weight, lysing cell pellet on ice by using Dounce homogenizer, spinning at 200 g 4° C. for 15 min, collecting supernatant and spinning again at 25000 g 4° C. for 50 min, transferring pellet to Dounce homogenizer, re-suspending pellet by homogenizing in membrane buffer on ice to reach ˜25 mg/mL, then keeping whole cell membrane aliquots at −80° C.
Compounds were prepared in a 96-well U bottom plate using an Echo550 machine and 10 mM compound DMSO stock solution, followed by an 8-dose 5-fold serial dilutions protocol with final testing compound concentration ranging from 0.06 to 5000 nM, with DMSO back fill to 100 nL/well and n=2. […] The UniFilter-96 GF/B plates were pre-treated by adding 50 μl/well of 0.3% (v/v) PEI to UniFilter-96 GF/B plates. The plates were sealed and incubated at 4° C. for 3 hrs. Then, the plates were washed with ice-cold assay buffer 3 times. The radioligand binding assay was prepared by adding assay buffer diluted hEBP-DHCR7 membrane at 66.7 μg/ml×150 μl/well into the 96-well compound plate to reach 10 μg membrane per well. Then, the assay buffer diluted [3H]—(S)-6-(2-Methyl-3-(6-(trifluoromethyl)pyridin-3-yl)propyl)-2-thia-6-azaspiro[3.4] octane 2,2-dioxide was added at 25 nM×50 μl/well. Following this, the plate was centrifuged at 1000 rpm for 30 secs. The plate was then sealed and agitated at 600 rpm at 22° C. for 5 min, and then incubated at 22° C. for 3 hrs. The incubation was stopped by transferring the binding solution to the pre-treated UniFilter-96 GF/B plate, vacuum filtrated, and then washed four times with ice-cold assay buffer. Following this, the plates were dried at 37° C. for 45 min. The plates were then sealed at the bottom. 40 μl/well of scintillation cocktail was added to the plates. A MicroBeta2 microplate counter was then used to read the plate and analyze the data. For reference and test compounds, the results are expressed as % Inhibition, using the normalization equation: N=100−100×(U−C2)/(C1−C2), where U is the unknown value, C1 is the average of high controls, and C2 is the average value of low controls. The IC50 was determined by fitting percentage of inhibition as a function of compound concentrations with Hill equation using XLfit. Results are expressed as hEBP-DHCR7 Ki (uM) in Table 4. Ki was calculated as described above. The asterix (*) indicates an isolated isomer or isolated group of isomers, but that the stereochemistry has not been assigned.

human emopamil binding protein and human 7-dehydrocholesterol reductase co-expressing cells (hEBP-DHCR7 membrane), sequence (Q15125 whole entry): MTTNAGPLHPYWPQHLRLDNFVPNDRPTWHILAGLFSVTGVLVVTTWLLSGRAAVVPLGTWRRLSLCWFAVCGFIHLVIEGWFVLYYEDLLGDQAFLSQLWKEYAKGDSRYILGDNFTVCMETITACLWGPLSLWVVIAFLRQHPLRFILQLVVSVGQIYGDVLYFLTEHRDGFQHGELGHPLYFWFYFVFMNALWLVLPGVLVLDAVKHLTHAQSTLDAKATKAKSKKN

SMILES	EC50 [1] [nM]	EC50 (EpiSC-derived OPCs) [nM]	Ki [2] [nM]
O=S1(=O)CC[C@@]2(CCCN([C@H]3CC[C@@H](c4ccc(C(F)(F)F)nc4)CC3)C2)C1 (single isomer, unassigned) [71A*]	6	19	
Cc1nc(C(F)(F)F)ccc1[C@H]1CC[C@@H](N2CCC3(C2)CS(=O)(=O)C3)CC1 [Compound 51B, 6-((1s,4s)-4-(2-methyl-6-(trifluoromethyl)pyridin-3-yl)cyclohexyl)-2-thia-6-azaspiro[3.4]octane 2,2-dioxide]	5.9		14
O=S1(=O)CC2(CCN([C@H]3CC[C@@H](c4ccnc(C(F)(F)F)c4)CC3)C2)C1 [Compound 60B, 6-((1s,4s)-4-(2-(trifluoromethyl)pyridin-4-yl)cyclohexyl)-2-thia-6-azaspiro[3.4]octane 2,2-dioxide]	85		21
O=S1(=O)CC2(CCN([C@H]3CC[C@@H](c4cccc(C(F)(F)F)n4)CC3)C2)C1 [Compound 62A, 6-((1s,4s)-4-(6-(trifluoromethyl)pyridin-2-yl)cyclohexyl)-2-thia-6-azaspiro[3.4]octane 2,2-dioxide]	45		23
O=S1(=O)CC2(CCN([C@H]3CC[C@H](c4cncc(C(F)(F)F)c4)CC3)C2)C1 [Compound 63A, 6-((1r,4r)-4-(5-(trifluoromethyl)pyridin-3-yl)cyclohexyl)-2-thia-6-azaspiro[3.4]octane 2,2-dioxide]	12		75
O=S1(=O)CC2(CCN([C@H]3CC[C@@H](c4cncc(C(F)(F)F)c4)CC3)C2)C1 [Compound 63B, 6-((1s,4s)-4-(5-(trifluoromethyl)pyridin-3-yl)cyclohexyl)-2-thia-6-azaspiro[3.4]octane 2,2-dioxide]	289		66
CCc1nc(C(F)(F)F)ccc1[C@H]1CC[C@@H](N2CCC3(C2)CS(=O)(=O)C3)CC1 [Compound 64B, 6-((1s,4s)-4-(2-ethyl-6-(trifluoromethyl)pyridin-3-yl)cyclohexyl)-2-thia-6-azaspiro[3.4]octane 2,2-dioxide]	3.2		12
CC(C)c1nc(C(F)(F)F)ccc1[C@H]1CC[C@@H](N2CCC3(C2)CS(=O)(=O)C3)CC1 [Compound 65B, 6-((1s,4s)-4-(2-isopropyl-6-(trifluoromethyl)pyridin-3-yl)cyclohexyl)-2-thia-6-azaspiro[3.4]octane 2,2-dioxide]	2.8		8
O=S1(=O)CC2(CCN([C@H]3CC[C@H](c4ccc(C(F)F)nc4)CC3)C2)C1 [Compound 67, 6-((1r,4r)-4-(6-(difluoromethyl)pyridin-3-yl)cyclohexyl)-2-thia-6-azaspiro[3.4]octane 2,2-dioxide]	30		180
O=S1(=O)CC2(CCN([C@H]3CC[C@@H](c4ccc(F)c(F)c4)CC3)C2)C1 [Compound 70B, 6-((1s,4s)-4-(3,4-difluorophenyl)cyclohexyl)-2-thia-6-azaspiro[3.4]octane 2,2-dioxide]	19		6.7
O=S1(=O)CC2(CCN([C@H]3CC[C@@H](c4cnc(C(F)(F)F)c(F)c4)CC3)C2)C1 [Compound 72B, 6-((1s,4s)-4-(5-fluoro-6-(trifluoromethyl)pyridin-3-yl)cyclohexyl)-2-thia-6-azaspiro[3.4]octane 2,2-dioxide]	59		26
O=S1(=O)CC2(CCN([C@H]3CC[C@H](c4ncc(C(F)(F)F)cc4F)CC3)CC2)C1 [Compound 80A, 7-((1r,4r)-4-(3-Fluoro-5-(trifluoromethyl)pyridin-2-yl)cyclohexyl)-2-thia-7-azaspiro[3.5] nonane 2,2-dioxide]	11		67
CC(C)(C)n1nc(C(F)(F)F)cc1[C@H]1CC[C@H](N2CCC3(CC2)CS(=O)(=O)C3)CC1 [Compound 85A, 7-((1r,4r)-4-(1-(tert-Butyl)-3-(trifluoromethyl)-1H-pyrazol-5-yl)cyclohexyl)-2-thia-7-azaspiro[3.5]nonane 2,2-dioxide]	8.1		15
O=S1(=O)CC2(CCN([C@H]3CC[C@H](c4ccnc(C(F)(F)F)c4)CC3)CC2)C1 [Compound 90B, 7-((1r,4r)-4-(2-(trifluoromethyl)pyridin-4-yl)cyclohexyl)-2-thia-7-azaspiro[3.5]nonane 2,2-dioxide]	42		1290
O=S1(=O)CC2(CCN([C@H]3CC[C@H](c4cnc(C(F)(F)F)nc4)CC3)C2)C1 [Compound 94A, 6-((1r,4r)-4-(2-(Trifluoromethyl)pyrimidin-5-yl)cyclohexyl)-2-thia-6-azaspiro[3.4]octane 2,2-dioxide]	81		230
O=S1(=O)CC2(CCN([C@H]3CC[C@@H](c4cnc(C(F)(F)F)nc4)CC3)C2)C1 [Compound 94B, 6-((1s,4s)-4-(2-(trifluoromethyl)pyrimidin-5-yl)cyclohexyl)-2-thia-6-azaspiro[3.4]octane 2,2-dioxide]	250		115
